Values quoted from earlier work, collected in patent publication US7705000B2, “Oral suspension comprising meloxicam” (Janssen Pharmaceutica N.V., priority 2004, dated 2010).

Settings: at a pH of 4

solubility of meloxicam: 0.5 µg/mL
Compound: Cc1cnc(NC(=O)C2=C(O)c3ccccc3S(=O)(=O)N2C)s1 [meloxicam, 4-hydroxy-2-methyl-N-(5-methyl-2-thiazolyl)-2H-1,2-benzo-thiazine-3-carboxamide-1,1-dioxide]
